According to US8044068B2, “Aminopyrrolidine compound” (Taisho Pharmaceutical Co., Ltd, priority 2006, dated 2011):
Counter-ions that a name gives are not always drawn.

Molecular target: T1, human MC4 receptor (Homo sapiens, UniProt P32245)
T1 construct: purchased Biolinks K.K; host or cells: HEK-293
Test: MC4 receptor binding experiment ([125I]Nle4-D-Phe7-α-MSH displacement)
Settings: human MC4 receptor expressing HEK-293 cell membrane; [125I]Nle4-D-Phe7-α-MSH 0.2 nM, 25° C.
Experimental: The MC4 receptor binding experiment was performed according to the method described in Pharmacology & Toxicology, 79, 161-165, 1996. The human MC4 receptor expressing-cell membrane obtained by expressing the human MC4 receptor in a HEK-293 cell was purchased from Biolinks K.K. The cell membrane was homogenized with 50 mM tris hydrochloride buffer (pH 7.4) containing 2 mM ethylenediaminetetraacetic acid, 10 mM calcium chloride, and 100 μM phenylmethylsulfonyl fluoride. The homogenate was centrifuged at 48,000×g at 4° C. for 20 min. The sediment obtained by centrifugation was rehomogenized with the same buffer, and the homogenate was centrifuged at 48,000×g at 4° C. for 20 min. This procedure was repeated twice. The sediment was suspended in 50 mM tris hydrochloride buffer (pH 7.4) containing 2 mM ethylenediaminetetraacetic acid, 10 mM calcium chloride, 100 μM phenylmethylsulfonyl fluoride, and 0.1% bovine serum albumin at a protein concentration of 100 μg/ml, and the suspension was used as a crude membrane preparation for the binding experiment. The crude membrane preparation (0.25 ml, 25 μg protein) was reacted with [^125I]Nle^4-D-Phe^7-α-MSH (final concentration, 0.2 nM) at 25° C. for 120 min. After completion of the reaction, the reaction solution was filtered by suction, using a cell harvester for the receptor binding experiment, onto a GF/C glass fiber filter paper immersed in 50 mM tris hydrochloride buffer (pH 7.4) containing 0.5% bovine serum for 2 h. Radioactivity on the filter paper was measured using a γ counter. The quantity of binding in the presence of 1 μM Nle^4-D-Phe^7-α-MSH was obtained as nonspecific binding, and specific binding was obtained by deducting the nonspecific binding from the total quantity, binding in the absence of 1 μM Nle^4-D-Phe^7-α-MSH. The test drug was dissolved in 100% DMSO solution and added to the membrane preparation at the same time as [^125I]Nle^4-D-Phe^7-α-MSH. The IC50 value was obtained from the inhibition curve in the range of 10^−10 to 10^−5 M. The binding test results of representative compounds are shown in Table 21 as examples.

T1 sequence (P32245 whole entry): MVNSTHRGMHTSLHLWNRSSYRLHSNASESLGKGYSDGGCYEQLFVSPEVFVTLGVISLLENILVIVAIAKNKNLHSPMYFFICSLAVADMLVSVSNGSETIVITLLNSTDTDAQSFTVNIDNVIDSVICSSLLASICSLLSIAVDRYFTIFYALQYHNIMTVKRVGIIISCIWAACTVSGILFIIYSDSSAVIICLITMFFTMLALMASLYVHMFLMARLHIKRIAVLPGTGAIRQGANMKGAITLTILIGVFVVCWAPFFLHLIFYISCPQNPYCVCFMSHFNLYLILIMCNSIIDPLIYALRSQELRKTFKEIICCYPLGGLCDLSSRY

| IC50 [nM] | Compound |
| --- | --- |
| 18 | Cc1ccc2nc(N[C@H]3CCN(C(=O)Cc4ccc(OC(F)(F)F)cc4)C3)nc(N(C)C)c2c1 [Compound 1-003] |
| 2.8 | COc1ccc2nc(N[C@H]3CCN(C(=O)Cc4ccc(OC(F)(F)F)cc4)C3)nc(N(C)C)c2c1 [Compound 1-005] |
| 10 | Cc1ccc2nc(N[C@H]3CCN(C(=O)Cc4ccc(OC(F)(F)F)cc4)C3)nc(NCCc3ccccn3)c2c1 [Compound 1-019] |
| 0.4 | COc1ccc2nc(N[C@H]3CCN(C(=O)Cc4ccc(OC(F)(F)F)cc4)C3)nc(N[C@@H]3CCN(C(C)=O)C3)c2c1 [Compound 1-032] |
| 0.4 | COc1ccc2nc(N[C@H]3CCN(C(=O)Cc4ccc(OC(F)(F)F)cc4)C3)nc(N[C@@H]3CCN(S(C)(=O)=O)C3)c2c1 [Compound 1-040] |
| 39 | O=C(c1ccc(F)cc1)C1CCN(c2nc(N[C@H]3CCN(C(=O)Cc4ccccc4-c4ccccc4)C3)nc3ccccc23)CC1 [Compound 1-073] |
| 1.5 | COc1ccc2nc(N[C@H]3CCN(C(=O)Cc4ccc(OC(F)(F)F)cc4)C3)nc(N3CCC(S(C)(=O)=O)CC3)c2c1 [Compound 1-078] |
| 37 | O=C(Cc1ccc(OC(F)(F)F)cc1)N1CC[C@H](Nc2nc(N3CCC(N4CCOCC4)CC3)c3ccc(F)cc3n2)C1 [Compound 1-092] |
| 22 | O=C(Cc1ccccc1-c1ccccc1)N1CC[C@H](Nc2nc(N3CCC(n4ccnc4)CC3)c3ccccc3n2)C1 [Compound 1-095] |
| 68 | O=C(Cc1ccccc1-c1ccccc1)N1CC[C@H](Nc2nc(N3CCc4ccccc4C3)c3ccc(F)cc3n2)C1 [Compound 1-101] |
| 7.3 | O=C1CN(c2nc(N[C@H]3CCN(C(=O)Cc4ccccc4-c4ccccc4)C3)nc3ccccc23)CCN1 [Compound 1-128] |
| 4.4 | O=C1CN(c2nc(N[C@H]3CCN(C(=O)Cc4cc(F)ccc4-c4ccc(OC(F)(F)F)cc4)C3)nc3cc(F)ccc23)CCN1 [Compound 1-133] |
| 21 | CN(C)C(=O)N1CCN(c2nc(N[C@H]3CCN(C(=O)Cc4ccc(OC(F)(F)F)cc4)C3)nc3ccccc23)CC1 [Compound 1-174] |
| 1 | COc1ccc2nc(N[C@H]3CCN(C(=O)Cc4ccc(OC(F)(F)F)cc4)C3)nc(N3CCN(C(=O)c4cccnc4)CC3)c2c1 [Compound 1-176] |
| 2.3 | CO[C@H]1CN(c2nc(N[C@H]3CCN(C(=O)Cc4ccc(OC(F)(F)F)cc4)C3)nc3ccccc23)C[C@H]1OC [Compound 1-206] |
| 6.8 | COc1ccc2nc(N[C@H]3CCN(C(=O)Cc4ccc(OC(F)(F)F)cc4)C3)cc(N3CCOCC3)c2c1 [Compound 3-011, (S)-1-(3-(6-methoxy-4-morpholinoquinolin-2-ylamino)pyrrolidin-1-yl)-2-(4-trifluoromethoxyphenyl)ethanone] |
| 78 | Cc1cc(N[C@H]2CCN(C(=O)Cc3ccc(OC(F)(F)F)cc3)C2)nc2ccc(F)cc12 [Compound 3-019] |
| 9.5 | Cc1cc(N[C@H]2CCN(C(=O)Cc3ccc(OC(F)(F)F)cc3)C2)nc2ccc(O)cc12 [Compound 3-022] |
| 2.4 | COc1ccc2nc(N[C@H]3CCN(C(=O)Cc4ccc(OC(F)(F)F)cc4)C3)cc(C)c2c1 [Compound 3-023] |
| 16 | COc1cc(N[C@H]2CCN(C(=O)Cc3ccc(OC(F)(F)F)cc3)C2)nc2ccc(C)cc12 [Compound 3-034] |
| 20 | Cc1cc(N[C@H]2CCN(C(=O)C3(c4ccc(Cl)cc4)CC3)C2)nc2ccc(O)cc12 [Compound 3-038] |
| 46 | COc1ccc2nc(N[C@H]3CCN(C(=O)C(C)(C)c4ccc(Cl)cc4)C3)cc(C)c2c1 [Compound 3-041] |
| 30 | Cc1cc(N[C@H]2CCN(S(C)(=O)=O)C2)nc(N[C@H]2CCN(C(=O)Cc3ccc(OC(F)(F)F)cc3)C2)n1 [Compound 4-022] |
| 52 | CCCN(CC1CC1)c1cc(C)nc(N[C@H]2CCN(C(=O)Cc3ccc(OC(F)(F)F)cc3)C2)n1 [Compound 4-035] |
| 56 | Cc1cc(N2CCOCC2)nc(N[C@H]2CCN(C(=O)Cc3ccc(OC(F)(F)F)cc3)C2)n1 [Compound 4-044] |

| IC50 [nM] | Compound |
| --- | --- |
| 39 | Cc1cc(N2CCS(=O)(=O)CC2)nc(N[C@H]2CCN(C(=O)Cc3ccc(OC(F)(F)F)cc3)C2)n1 [Compound 4-054] |
| 28 | Cc1cc(N2CCCOCC2)nc(N[C@H]2CCN(C(=O)Cc3ccc(OC(F)(F)F)cc3)C2)n1 [Compound 4-058] |
| 9.3 | Cc1cc(N2CCS(=O)(=O)CC2)cc(N[C@H]2CCN(C(=O)Cc3ccc(OC(F)(F)F)cc3)C2)n1 [Compound 5-006, 1-((S)-3-(4-(1,1-dioxo-1λ^6-thiomorpholin-4-yl)-6-methylpyridin-2-ylamino)pyrrolidin-1-yl)-2-(4-trifluoromethoxyphenyl)ethanone] |
| 71 | CN(C)c1nc(N[C@H]2CCN(C(=O)Cc3ccc(OC(F)(F)F)cc3)C2)nc2ccsc12 [Compound 6-001, (S)-1-(3-(4-dimethylaminothieno[3,2-d]pyrimidin-2-ylamino)pyrrolidin-1-yl)-2-(4-trifluoromethoxyphenyl)ethanone 1 maleate] |
| 94 | CS(=O)(=O)C1CCN(c2cc(N[C@H]3CCN(C(=O)Cc4ccc(OC(F)(F)F)cc4)C3)nc3ccsc23)CC1 [Compound 7-002, (S)-1-(3-(7-(4-methylsulfonylpiperidin-1-yl)thieno[3,2-b]pyridin-5-ylamino)pyrrolidin-1-yl)-2-(4-trifluoromethoxyphenyl)ethanone] |
| 11 | CC(=O)N1CCN(c2nc(N[C@H]3CCN(C(=O)Cc4ccc(OC(F)(F)F)cc4)C3)nc3cscc23)CC1 [Compound 8-004] |
| 12 | CS(=O)(=O)C1CCN(c2nc(N[C@H]3CCN(C(=O)Cc4ccc(OC(F)(F)F)cc4)C3)nc3cscc23)CC1 [Compound 8-005] |
| 10 | O=C(Cc1ccc(OC(F)(F)F)cc1)N1C[C@@H](O)[C@H](Nc2nc(N3CCOCC3)c3cscc3n2)C1 [Compound 8-006] |
| 10 | CC(=O)N1CCN(c2nc(N[C@@H]3CN(C(=O)Cc4ccc(OC(F)(F)F)cc4)C[C@H]3O)nc3cscc23)CC1 [Compound 8-007] |
| 1.3 | CS(=O)(=O)N1CC[C@@H](Nc2nc(N[C@@H]3CN(C(=O)Cc4ccc(OC(F)(F)F)cc4)C[C@H]3O)nc3ccc(Cl)cc23)C1 [Compound 11-008] |
| 6.1 | O=C(Cc1ccc(OC(F)(F)F)cc1)N1C[C@@H](O)[C@H](Nc2nc(N3CCOCC3)c3cc(Cl)ccc3n2)C1 [Compound 11-009] |
| 0.3 | COc1ccc2nc(N[C@@H]3CN(C(=O)Cc4ccc(OC(F)(F)F)cc4)C[C@H]3O)nc(N[C@@H]3CCN(S(C)(=O)=O)C3)c2c1 [Compound 11-012] |
| 1.4 | COc1ccc2nc(N[C@@H]3CN(C(=O)Cc4ccc(OC(F)(F)F)cc4)C[C@H]3O)nc(N3CCC(S(C)(=O)=O)CC3)c2c1 [Compound 11-014] |
| 1 | COc1ccc2nc(N[C@@H]3CN(C(=O)Cc4ccc(OC(F)(F)F)cc4)C[C@H]3O)nc(N3CCN(C(C)=O)CC3)c2c1 [Compound 11-015] |
| 2.9 | COc1ccc2nc(N[C@@H]3CN(C(=O)Cc4ccc(OC(F)(F)F)cc4)C[C@H]3O)cc(N3CCOCC3)c2c1 [Compound 12-001] |
| 13 | Cc1ccc2nc(N[C@@H]3CN(C(=O)Cc4ccc(OC(F)(F)F)cc4)C[C@H]3O)cc(C)c2c1 [Compound 12-004] |
| 14 | Cc1cc(N[C@@H]2CN(C(=O)Cc3ccc(OC(F)(F)F)cc3)C[C@H]2O)nc2ccc(O)cc12 [Compound 12-007] |
| 12 | CO[C@@H]1CN(C(=O)Cc2ccc(OC(F)(F)F)cc2)C[C@H]1Nc1cc(C)c2cc(O)ccc2n1 [Compound 12-008, 1-((3R,4R)-3-(6-hydroxy-4-methylquinolin-2-ylamino)-4-methoxypyrrolidin-1-yl)-2-(4-trifluoromethoxyphenyl)ethanone] |
| 3 | COc1ccc2nc(N[C@@H]3CN(C(=O)Cc4ccc(OC(F)(F)F)cc4)C[C@H]3OC)cc(C)c2c1 [Compound 12-010] |
| 3.3 | COc1ccc2nc(N[C@@H]3CN(C(=O)Cc4ccc(OC(F)(F)F)cc4)C[C@H]3O)cc(OC)c2c1 [Compound 12-017] |
| 3.4 | COc1ccc2nc(N[C@@H]3CN(C(=O)Cc4ccc(OC(F)(F)F)cc4)C[C@H]3OC)cc(OC)c2c1 [Compound 12-018] |
| 25 | Cc1cc(N[C@@H]2CCN(S(C)(=O)=O)C2)nc(N[C@@H]2CN(C(=O)Cc3ccc(OC(F)(F)F)cc3)C[C@H]2O)n1 [Compound 13-002] |
| 46 | CO[C@@H]1CCN(c2cc(C)nc(N[C@@H]3CN(C(=O)Cc4ccc(OC(F)(F)F)cc4)C[C@H]3O)n2)C1 [Compound 13-004] |
| 21 | Cc1cc(N2CCCCC2)nc(N[C@@H]2CN(C(=O)Cc3ccc(OC(F)(F)F)cc3)C[C@H]2O)n1 [Compound 13-005] |
| 36 | CO[C@@H]1CN(C(=O)Cc2ccc(OC(F)(F)F)cc2)C[C@H]1Nc1nc(C)cc(N2CCOCC2)n1 [Compound 13-008] |
